For one test, the target named is T1, hGPR119 (Homo sapiens, UniProt Q8TDV5).
T1 construct: expressed in transfected cells
T1 sequence (Q8TDV5 2-335 limits assumed): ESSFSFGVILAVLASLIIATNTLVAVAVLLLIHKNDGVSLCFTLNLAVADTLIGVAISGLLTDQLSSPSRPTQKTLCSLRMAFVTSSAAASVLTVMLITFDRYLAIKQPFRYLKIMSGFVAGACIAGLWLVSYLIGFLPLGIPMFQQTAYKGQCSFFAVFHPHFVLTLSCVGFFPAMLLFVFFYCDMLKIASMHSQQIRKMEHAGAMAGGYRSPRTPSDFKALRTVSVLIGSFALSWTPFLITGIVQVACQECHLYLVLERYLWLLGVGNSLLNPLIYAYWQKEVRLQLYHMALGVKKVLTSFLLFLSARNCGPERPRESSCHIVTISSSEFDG
In words: HTRF cAMP assay in CHO-K1 cells stably expressing the GPR119 receptor. The format is cell-based. The procedure: GPR119 agonists were evaluated in an HTRF® cAMP detection assay according to the manufacturer's instructions (Cisbio, cAMP Dynamic 2 Assay Kit; #62AM4PEJ) using CHO-K1 cells stably expressing the GPR119 receptor. Briefly, CHO-K1 cells were transduced with a lentiviral vector encoding the nucleotide sequence of GPR119 (NCBI mRNA and protein reference sequences: NM_178471.2 & NP_848566, (GPR119 has also been referred to as Glucose-Dependent Insulinotropic Receptor (GDIR)). The N-terminus of the GPR119 nucleotide sequence was modified to replace the first, methionine-coding codon with a nucleotide sequence coding for a standard, nine amino acid, hemagglutinin tag. Following transduction, cells expressing the GPR119 receptor were isolated and a single clone was isolated following standard dilution-cloning procedures. On the day of the assay, cultured CHO-GPR119 cells were harvested, suspended in assay buffer and plated into 384-well assay plates (PerkinElmer Proxiplate #6008280) at a density of 2,000 cells per well. A cAMP standard curve was added to each plate. Test compounds were solubilized in DMSO, serially diluted in DMSO and then diluted in assay buffer before adding to the cells. Test compounds were evaluated in triplicate, using 10-point, 5-fold serial dilutions starting at 10 μM. The final DMSO concentration in the assay was 0.5%. Compounds and cells were incubated for 1 h at room temperature and then detection reagents were added to each well (cAMP-D2 in cell lysis buffer, followed by europium cryptate-labeled anti-cAMP antibody). Plates were then incubated at room temperature for 1 h prior to reading. Time-resolved fluorescence measurements were collected on PerkinElmer Envision™ or BMG Pherastar™ microplate readers. The compound N-(2-fluoro-4-(methylsulfonyl)phenyl)-6-(4-(3-isopropyl-1,2,4-oxadiazol-5-yl)piperidin-1-yl)-5-nitropyrimidin-4-amine was used as a positive control in each runset while assay buffer containing 0.5% DMSO was used as the negative control. The HTRF® assay was used to determine EC50 values for GPR119 agonists.

The subject of test [1] is Male 129SVE mice. The test is described as follows: Oral glucose tolerance test (oGTT) in male 129SVE mice. The note with it: for plasma glucose level, Mean: oGTT, in mg/dL (unit assumed). The format is in vivo. The procedure:
Male 129SVE mice (approximately 8-week old) were fasted for 18 h and randomly grouped (n=6) to receive a GPR119 agonist (Compound 8) at 3, or 30 mg/kg (mg/kg body weight). The compound was delivered orally via a gavage needle (p.o., volume at 4 mL/kg) 30 minutes prior to glucose bolus (3 g/kg) (time=−30 min in FIG. 1), with a separate group receiving vehicle (20% hydroxypropyl-beta-cyclodextrin) as control. At time 0 min the glucose bolus was administered. Levels of blood glucose were assessed using a glucometer (One-Touch Ultra™, LifeScan) at time −30 minute (prior to compound administration), at 0 min (at time when glucose bolus was given), and at 20, 40, 60, 120 minutes post glucose bolus. The plasma glucose level (Table 1) and glucose excursion curve (FIG. 1) are shown. Glucose excursion AUC (area under the curve) reduction in compound treated animals relative to vehicle control is given in FIG. 2.

Test [2] has as its system Male 129SVE mice. In words: In vivo incretin hormone GIP release (plasma total GIP, ELISA). The following applies: 3 or 30 mpk p.o., blood sample after 45 min. The procedure:
Male 129SVE mice (approximately 8-week old) were fasted for 18 h and randomly grouped (n=6) to receive a GPR119 agonist (Compound 8) at 3 or 30 mpk dose (mg/kg body weight). Compound 8 were delivered orally via a gavage needle (p.o., volume at 4 mL/kg), and after 45 min a blood sample was collected to determine plasma total GIP levels. A separate group received vehicle (PET: 80% PEG:10% Ethanol:10% Tween80™) as control. Plasma GIP levels were determined using a Total GIP ELISA kit from Millipore.

Regarding `CC(C)(C)OC(=O)N1CCC(CO[C@H]2CC[C@@H](c3cnc(S(C)(=O)=O)cn3)CC2)CC1` [Compound 12, tert-Butyl 4-((-4-(5-(Methylsulfonyl)pyrazin-2-yl)cyclohexyloxy)methyl)piperidine-1-carboxylate], the EC50 (commonly the concentration that produces a half-maximal response) at hGPR119 worked out at 707 nM.

Turning to `Cc1nc(S(C)(=O)=O)ccc1[C@H]1CC[C@H](OCC2CCN(c3ncc(C(F)(F)F)cn3)CC2)CC1` [Compound 31, 2-(4-(((1r,4r)-4-(2-Methyl-6-(methylsulfonyl)pyridin-3-yl)cyclohexyloxy)methyl)piperidin-1-yl)-5-(trifluoromethyl)pyrimidine], at hGPR119, the response was half-maximal at 42 nM (EC50).

`CC(C)(C)OC(=O)N1CCC(COC2CC=C(c3ccncc3C#N)CC2)CC1` (stereo not shown) [Compound 50, tert-Butyl 4-((4-(3-Cyanopyridin-4-yl)cyclohex-3-enyloxy)methyl)piperidine-1-carboxylate] yielded an EC50 at hGPR119 of 38 nM.

The compound `CS(=O)(=O)c1ccc([C@H]2CC[C@H](OCC3CCN(c4ncc(C(F)(F)F)cn4)CC3)CC2)nc1` [Compound 18] returned an EC50 at hGPR119 of 134 nM.

With `CC(C)OC(=O)N1CCC(CO[C@H]2CC[C@H](c3ccc(S(C)(=O)=O)cc3F)CC2)CC1` [Compound 11, Isopropyl 4-(((1r,4r)-4-(2-Fluoro-4-(methylsulfonyl)phenyl)cyclohexyloxy)methyl)piperidine-1-carboxylate], the EC50 at hGPR119 is 21 nM.

On to `CC(C)(C)OC(=O)N1CCC(CO[C@H]2CC[C@H](c3ccncc3C#N)CC2)CC1` [Compound 49, tert-Butyl 4-(((1r,4r)-4-(3-Cyanopyridin-4-yl)cyclohexyloxy)methyl)piperidine-1-carboxylate], for which the EC50 at hGPR119 is 1030 nM.

Take `CSc1ccc([C@H]2CC[C@H](OCC3CCN(C(=O)OC(C)(C)C)CC3)CC2)cc1` [Compound 41, tert-Butyl 4-((4-(4-(Methylthio)phenyl)cyclohexyloxy)methyl)piperidine-1-carboxylate]: the 50% effective concentration (EC50) on hGPR119 turned out to be 505 nM.

`CC(C)(C)OC(=O)N1CCC(CO[C@H]2CC[C@H](c3ccncc3F)CC2)CC1` [Compound 56, tert-Butyl 4-(((1r,4r)-4-(3-Fluoropyridin-4-yl)cyclohexyloxy)methyl)piperidine-1-carboxylate] returned an EC50 on hGPR119 of 63 nM. This EC50 lies about 8-fold lower than the previous one.

In the case of `CC(C)OC(=O)N1CCC(CO[C@H]2CC[C@H](c3ccc(S(C)(=O)=O)cc3)CC2)CC1` [Compound 38, Isopropyl 4-((4-(4-(Methylsulfonyl)phenyl)cyclohexyloxy)methyl)piperidine-1-carboxylate], the EC50 at hGPR119 is 57 nM.

At hGPR119, `CC(C)c1noc(N2CCC(COC3CC=C(c4ccc(S(C)(=O)=O)cc4)CC3)CC2)n1` (stereo not shown) [Compound 23, 3-Isopropyl-5-(4-((4-(4-(Methylsulfonyl)phenyl)cyclohex-3-enyloxy)methyl)piperidin-1-yl)-1,2,4-oxadiazole] yielded an EC50 of 15 nM. Compared with the last compound, the EC50 is about 3.8-fold lower.

`CCc1cnc(N2CCC(CO[C@H]3CC[C@H](c4ccc(S(C)(=O)=O)cc4F)CC3)CC2)nc1` [Compound 8, 5-Ethyl-2-(4-(((1r,4r)-4-(2-fluoro-4-(methylsulfonyl)phenyl)cyclohexyloxy)methyl)piperidin-1-yl)pyrimidine]: the “effect on blood glucose after glucose challenge” value in the test on Male 129SVE mice [1] (129SVE mice, 3 or 30 mg/kg p.o., 30 min prior to glucose bolus (3 g/kg)) is recorded as “lowered blood glucose”. In addition, the “plasma glucose level, Mean” value in the test with Male 129SVE mice [1] (3 mpk p.o., 20 min post glucose bolus) is listed as 201.3; in the test on Male 129SVE mice [1] (3 mpk p.o., 40 min post glucose bolus), 250.2; in the test on Male 129SVE mice [1] (3 mpk p.o., 60 min post glucose bolus), 262.8; in the test with Male 129SVE mice [1] (3 mpk p.o., 120 min post glucose bolus) it was 163.3; in the test on Male 129SVE mice [1] (3 mpk p.o., time 0 min relative to glucose bolus), 112.5; in the test with Male 129SVE mice [1] (3 mpk p.o., time −30 min relative to glucose bolus (prior to compound administration)) it was 88.7. Further, the “plasma glucose level, Mean” value in the test on Male 129SVE mice [1] (30 mpk p.o., 20 min post glucose bolus) was 163.5; in the test on Male 129SVE mice [1] (30 mpk p.o., 40 min post glucose bolus), 204.2; in the test with Male 129SVE mice [1] (30 mpk p.o., 60 min post glucose bolus), 193.2; with Male 129SVE mice [1] (30 mpk p.o., 120 min post glucose bolus), 107.5; in the test on Male 129SVE mice [1] (30 mpk p.o., time 0 min relative to glucose bolus), 96.0; in the test with Male 129SVE mice [1] (30 mpk p.o., time −30 min relative to glucose bolus (prior to compound administration)), 72.2. Moreover, the “effect on plasma total GIP release” value in the test on Male 129SVE mice [2] is “stimulates the release of GIP”.

Take `CC(C)(C)OC(=O)N1CCC(CO[C@H]2CC[C@H](c3ccc(S(C)(=O)=O)cc3F)CC2)CC1` [Compound 42, tert-Butyl 4-((4-(2-Fluoro-4-(methylsulfonyl)phenyl)cyclohexyloxy)methyl)piperidine-1-carboxylate]: a half-maximal response at hGPR119 (EC50) required 6.4 nM.

With `CS(=O)(=O)c1ccc([C@H]2CC[C@H](OCC3CCN(Cc4nc(C(F)(F)F)no4)CC3)CC2)c(F)c1` [Compound 60, 5-((4-(((1r,4r)-4-(2-Fluoro-4-(methylsulfonyl)phenyl)cyclohexyloxy)methyl)piperidin-1-yl)methyl)-3-(trifluoromethyl)-1,2,4-oxadiazole], the response on hGPR119 was half-maximal at 200 nM (EC50). Compared with the last compound, the EC50 is about 31-fold higher.

On to `CC(C)(C)OC(=O)N1CCC(CO[C@H]2CC[C@H](c3ccc(S(C)(=O)=O)cc3)CC2)CC1` [Compound 1, tert-Butyl 4-((4-(4-(Methylsulfonyl)phenyl)cyclohexyloxy)methyl)piperidine-1-carboxylate], for which the EC50 on hGPR119 worked out at 16 nM.

For `CC(C)(F)c1noc(N2CCC(CO[C@H]3CC[C@H](c4ccc(S(C)(=O)=O)cc4F)CC3)CC2)n1` [Compound 16, 5-(4-(((1r,4r)-4-(2-Fluoro-4-(methylsulfonyl)phenyl)cyclohexyloxy)methyl)piperidin-1-yl)-3-(2-fluoropropan-2-yl)-1,2,4-oxadiazole], the EC50 on hGPR119 was found to be 38 nM.

The values above are taken from US20140018371A1, “Modulators Of The GPR119 Receptor And The Treatment Of Disorders Related Thereto” (ARENA PHARMACEUTICALS, INC., priority 2011, published 2014).
